The target of assay [1] is T1, Plasmodium falciparum lysyl t-RNA synthetase (Pf-KRS1) (Plasmodium falciparum, UniProt Q8IDJ8).
T1 construct: Pf KRS1-; made in house; host or cells: E. coli BL21 (DE3)
Briefly: Pf-KRS1 inhibition biochemical assay (Kinase-Glo, ATP depletion). To be noted: read-out: Pf-KRS pIC50 (converted). An excerpt:
Plasmodium falciparum Lysine tRNA Synthetase (KRS1) Biochemical Assay Methodology.
Lysine tRNA Synthetase (KRS1) is an enzyme which catalyses the esterification of L-Lysine to the appropriate transfer ribonucleic acid (tRNA), to form an aminoacyl-tRNA. Once the tRNA is charged, a ribosome transfers the amino acid from the tRNA onto a growing peptide, according to the genetic code.
The substrates of this reaction are L-lysine, and adenosine triphosphate (ATP), the overall reaction is: amino acid+tRNA+ATP→aminoacyl-tRNA+AMP+PPi
In this overall reaction AMP is adenosine monophosphate and PP; is inorganic pyrophosphate. The reaction progression in a biochemical assay can be tracked by the depletion of one of the substrates, in the case of this invention, ATP. This was done using the proprietary assay kit, Kinase Glo® Assay which is a luminescent kinase assay platform suitable for monitoring kinase activities using up to 10 μm ATP which is commercially available from the Promega Corporation of Madison, Wis., USA. The Kinase-Glo® Assay was performed in a single well of a multiwell plate by adding a volume of Kinase-Glo® Reagent equal to the volume of a completed kinase reaction and measuring luminescence. The resulting luminescent signal is correlated with the amount of ATP present and is inversely correlated with the amount of kinase activity. As such by use of this assay methodology a reduction of the luminescent signal is relative to the reduction in ATP as the reaction progresses. A compound which inhibits the action of KRS will show no drop in the luminescent signal from assay controls.
Assays were performed using both Plasmodium falciparum and human KRS to assess any selectivity of various test compounds.
Test compounds were solubilized in DMSO at a top concentration of 10 mM and serially diluted 1 in 3 to achieve a range of final assay concentrations of 50 μM to 2.5 nM in 10 μl reaction volume.
KRS was diluted to a working concentration of 75 nM in assay buffer (25 mM HEPES, 25 mM KOH, 10 mM MgCl2.6H2O, 50 mM KCl), and the following ‘Master Mix’ prepared in assay buffer: 0.1 mg/ml BSA, 250 μM DTT, 200 μM Spermine, 0.05% NP-40, ATP 3 μM for Pf KRS1 (4 μM for Hs KRS1), 0.4 mg/ml tRNA from Yeast, 60 μM L-Lysine, 0.5 U/ml Pyrophosphatase.
Plates were incubated at room temperature for 5 h for Pf KRS (2.5 hrs for HsKRS), then the assay stopped by the addition of 10 μl of The Kinase-Glo® Reagent Assay was performed in a single well of a multiwell plate by adding a volume of Kinase-Glo® Reagent which is commercially available from the Promega Corporation of Madison, Wis., USA. The plates were incubated in the dark for a further 15 mins before being read for luminescence on a BMG PHERAstar® FSX plate reader which is a multi-mode reader for use in high-throughput screening available from BMG Labtech if Cary, N.C., USA. Data were analysed by calculating the percentage inhibition compared to the maximum and minimum assay controls. Concentration effect curves were fitted using nonlinear regression within ActivityBase and IC50 values were determined using standard protocols.
(Kinase-Glo reads ATP consumption through a luciferase reaction.)

The subject of assay [2] is Plasmodium falciparum strain 3D7. Briefly: Plasmodium falciparum 3D7 in vitro growth inhibition (SYBRgreen I). In kind it is cell-based. Conditions: for EC50: Plasmodium falciparum, 3D7, read-out: pEC50 for Pf 3D7 (converted). How it is done:
Parasite Cultures and Cytotoxicity Assay Methodology for Plasmodium falciparum. […] Growth inhibition of the Plasmodium falciparum cultures was quantified in a 10-point dose response curve with a 1 in 3 dilution series from a top assay concentration of 50 μM. This 384 well plate based fluorescence assay utilises the binding of SYBRgreen I (Thermo Fisher Scientific/Invitrogen cat. no. S7585) to double stranded DNA, which greatly increases the fluorescent signal at 528 nm after excitation at 485 nm. Mefloquine was used as a drug control to monitor the quality of the assay (Z′=0.6 to 0.8, where Z′ is a measure of the discrimination between the positive and negative controls on a screen plate). Dose-response curves were determined from a minimum of 3 independent experiments. Compound bioactivity was expressed as EC50, the effective concentration of compound causing 50% parasite death.

Assay [3] deals with Cryptosporidium parvum. Briefly: In vitro Crytosporidium inhibition assay. The format is cell-based. Conditions: Cryptosporidium parvum; read-out: Cryptosporidium parvum pEC50 (converted). An excerpt: Assay Method for Measurement of In Vitro Inhibition of Crytosporidium.
These experiments were run in accordance with the method of Besssoff et. al. Antimicrob. Agents Chemother. 2013, 57:1804-1814. Results from these experiments are provided in the Experimental Results hereinafter.

Assay [4] relates to Hep G2. Briefly: Hep G2 in-vitro cytotoxicity assay. In kind it is cell-based. Conditions: Homo sapiens, HepG2, read-out: Hs HEPG2 pEC50 (converted). An excerpt:
In-vitro cytotoxicity studies can be carried out using Hep G2 (Human hepatocyte carcinoma, HPACC cat. no. 85011430) used as indicators for general mammalian cell toxicity. Hep G2 in-vitro cytotoxicity can be assessed using the assay procedure as described in “Use of a human-derived liver cell line for the detection of cytoprotective, antigenotoxic and cogenotoxic agents”, Volker Mersch-Sundermann, Siegfried Knasmüller, Xin-jiang Wu, Firouz Darroudi, Fekadu Kassie. J. Tox 198 (2004) 329-340) the contents of which are incorporated herein by reference.

Each structure is given as a SMILES string. Several values for one entry are separate records, joined by “and”; a condition that tells them apart may be missing. Identical values can stand only once. Counter-ions that a name gives are not always drawn.

T1 sequence (Q8IDJ8 entry or part of it, looked up, natural form): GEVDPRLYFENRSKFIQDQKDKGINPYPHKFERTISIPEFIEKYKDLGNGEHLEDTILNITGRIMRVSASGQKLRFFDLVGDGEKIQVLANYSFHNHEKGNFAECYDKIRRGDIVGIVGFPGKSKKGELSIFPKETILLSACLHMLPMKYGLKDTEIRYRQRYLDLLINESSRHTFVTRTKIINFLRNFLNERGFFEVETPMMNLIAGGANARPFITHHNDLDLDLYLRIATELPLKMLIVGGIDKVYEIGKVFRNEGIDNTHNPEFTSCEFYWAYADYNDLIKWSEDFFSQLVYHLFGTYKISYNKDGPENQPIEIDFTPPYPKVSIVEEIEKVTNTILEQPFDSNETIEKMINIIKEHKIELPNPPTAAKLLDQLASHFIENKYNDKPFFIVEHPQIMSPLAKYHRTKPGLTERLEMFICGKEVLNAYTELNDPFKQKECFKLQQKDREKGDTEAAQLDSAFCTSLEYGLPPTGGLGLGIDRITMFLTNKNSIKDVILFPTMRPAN

Turning to `NC(=O)c1ccc2oc(C(=O)NCC3CCCCC3)cc(=O)c2c1` [Example 43, N2-(cyclohexylmethyl)-4-oxo-chromene-2,6-dicarboxamide], in assay [1], the IC50 was 398 nM. The values for the EC50 in assay [2] and in assay [3] were 3160 nM and 5010 nM, respectively.
Taken in the same sequence, the figures for `O=C(NCC1CC2CCC1C2)c1cc(=O)c2cc(F)ccc2o1` (stereo not shown) [Example 36, 6-fluoro-N-(norbornan-2-ylmethyl)-4-oxo-chromene-2-carboxamide] were 126 nM, 794 nM and 1260 nM.
As to `COC(=O)c1cccc2c(=O)cc(C(=O)NCC3CCCCC3)oc12` [Example 87, Methyl 2-((cyclohexylmethyl)carbamoyl)-4-oxo-4H-chromene-8-carboxylate], the EC50 in assay [2] was 126 nM; in assay [4], 25100 nM.
As to `O=C(NCC1(O)CCC(F)(F)CC1)c1cc(=O)c2ccc(F)c(O)c2o1` [Example 80, N-((4,4-difluoro-1-hydroxycyclohexyl)methyl)-7-fluoro-8-hydroxy-4-oxo-4H-chromene-2-carboxamide], in assay [1], the IC50 is 316 nM. Also, the EC50 in assay [4] is 50100 nM.
With `Cc1c(C(=O)NCC2CCCCC2)oc2ccc(F)cc2c1=O` [Example 91, N-(cyclohexylmethyl)-6-fluoro-3-methyl-4-oxo-4H-chromene-2-carboxamide], the IC50 in assay [1] is 631 nM. For the same compound, in assay [2], the “pEC50 for Pf 3D7” value was 5.2 and the EC50 was 5010 nM. The EC50 in assay [3] is 2510 nM.
As to `O=C(NC[C@@H]1CCCC[C@H]1O)c1cc(=O)c2cc(F)ccc2o1` [Example 57E, 6-Fluoro-N-(((1S,2R)-2-hydroxycyclohexyl)methyl)-4-oxo-4H-chromene-2-carboxamide], the EC50 in assay [4] is 50100 nM.
`CCOC(=O)CC1(CNC(=O)c2cc(=O)c3cc(F)ccc3o2)CCCCC1` [Example 57K, Ethyl 2-(1-((6-fluoro-4-oxo-4H-chromene-2-carboxamido)methyl)cyclohexyl)acetate]: the IC50 in assay [1] was 316 nM.
For `CCc1ccc2oc(C(=O)NCC3(O)CCCCC3)cc(=O)c2c1` [Example 45, 6-ethyl-N-[(1-hydroxycyclohexyl)methyl]-4-oxo-chromene-2-carboxamide], in assay [4], the EC50 is 50100 nM.
On the same count and under the same terms, with `O=C(NCC1CCCCC1)c1cc(=O)c2cccc(OCCN3CCNCC3)c2o1` [Example 62, N-(cyclohexylmethyl)-4-oxo-8-(2-piperazin-1-ylethoxy)chromene-2-carboxamide dihydrochloride] the figure was 50100 nM.
As for `O=C(NCC1CCCCO1)c1cc(=O)c2cc(F)ccc2o1` (stereo not shown) [Example 32, 6-fluoro-4-oxo-N-(tetrahydropyran-2-ylmethyl)chromene-2-carboxamide], the IC50 in assay [1] was 398 nM and 794 nM. The EC50 in assay [2] was 1580 nM.
As for `COc1cccc2c(=O)cc(C(=O)NCC3CCCCC3)oc12` [Example 66, N-(cyclohexylmethyl)-8-methoxy-4-oxo-4H-chromene-2-carboxamide], the IC50 in assay [1] was 501 nM. Moreover, the EC50 in assay [2] is 2510 nM.
For `O=C(NCC1CCCCC1)c1cc(=O)c2cccc(F)c2o1` [Example 8, N-(cyclohexylmethyl)-8-fluoro-4-oxo-chromene-2-carboxamide], the EC50 in assay [4] is 50100 nM.
`NC(=O)c1cccc2c(=O)cc(C(=O)NCC3CCCCC3)oc12` [Example 89, N2-(cyclohexylmethyl)-4-oxo-4H-chromene-2,8-dicarboxamide]: the IC50 in assay [1] is 501 nM. Also, the EC50 in assay [4] was 50100 nM.
Turning to `O=C(NCC1(CCO)CCCCC1)c1cc(=O)c2cc(F)ccc2o1` [Example 40A, 6-Fluoro-N-((1-(2-hydroxyethyl)cyclohexyl)methyl)-4-oxo-4H-chromene-2-carboxamide], the IC50 in assay [1] is 200 nM. The EC50 in assay [2] was 200 nM; in assay [4] it was 50100 nM.
Regarding `Cc1c(C(=O)NCC2CCCCC2)oc2ccccc2c1=O` [Example 90, N-(cyclohexylmethyl)-3-methyl-4-oxo-4H-chromene-2-carboxamide], the IC50 in assay [1] was 1260 nM. Also, the EC50 in assay [2] is 5010 nM.
For the compound `Nc1c(F)ccc2c(=O)cc(C(=O)NCC3(O)CCC(F)(F)CC3)oc12` [Example 92, 8-Amino-N-[(4,4-difluoro-1-hydroxy-cyclohexyl)methyl]-7-fluoro-4-oxo-chromene-2-carboxamide], the EC50 in assay [2] was 79.4 nM.
For the compound `CS(=O)(=O)Nc1cccc2c(=O)cc(C(=O)NCC3(O)CCCCC3)oc12` [Example 84A, N-[(1-hydroxycyclohexyl)methyl]-8-(methylsulfonamido)-4-oxo-4H-chromene-2-carboxamide], in assay [4], the EC50 is 50100 nM.
`Nc1cc(F)cc2c(=O)cc(C(=O)NC[C@H]3CC[C@H](O)CC3)oc12` [Example 98, 8-amino-6-fluoro-N-[(4-hydroxycyclohexyl)methyl]-4-oxo-chromene-2-carboxamide]: the EC50 is 631 nM in assay [2] and 50100 nM in assay [4].
`Nc1cc(F)cc2c(=O)cc(C(=O)NCC3(O)CCCCC3)oc12` [Example 96, 8-amino-6-fluoro-N-[(1-hydroxycyclohexyl)methyl]-4-oxo-4H-chromene-2-carboxamide]: the EC50 in assay [2] was 12.6 nM.
For the compound `Nc1cc(F)cc2c(=O)cc(C(=O)NCC3(F)CCCCC3)oc12` [Example 97, 8-amino-6-fluoro-N-[(1-fluorocyclohexyl)methyl]-4-oxo-4H-chromene-2-carboxamide], the EC50 in assay [2] is 39.8 nM; in assay [4], 20000 nM.
As for `CS(=O)(=O)Nc1cc(F)cc2c(=O)cc(C(=O)NCC3CCCCC3)oc12` [Example 100, N-(cyclohexylmethyl)-6-fluoro-8-(methanesulfonamido)-4-oxo-chromene-2-carboxamide], in assay [1], the IC50 was 158 nM. Besides, the values for the EC50 in assay [2] and in assay [4] were 200 nM and 50100 nM, respectively.
Taken in the same sequence, the figures for `O=C(NCC1CCCCC1)c1cc(=O)c2cccc(CO)c2o1` [Example 82, N-(cyclohexylmethyl)-8-(hydroxymethyl)-4-oxo-chromene-2-carboxamide] were 251 nM, 200 nM and 50100 nM.
Consider `O=C(NCC1CCCCC1)c1cc(=O)c2cccc(C(=O)O)c2o1` [Example 88, 2-((Cyclohexylmethyl)carbamoyl)-4-oxo-4H-chromene-8-carboxylic acid], for which the EC50 in assay [3] was 7940 nM.
With `O=C(NCC1(O)CCCC1)c1cc(=O)c2cc(F)cc(O)c2o1` [Example 76F, 6-fluoro-8-hydroxy-N-((1-hydroxycyclopentyl)methyl)-4-oxo-4H-chromene-2-carboxamide], the IC50 in assay [1] is 79.4 nM. In assay [2], the EC50 is 501 nM.
